Measurements taken from PubChem BioAssay AID1259407 (Chemical Carcinogenesis Research Information System (CCRIS), 2018).
Calls of active or inactive are those of the source. How the calls were made is not given here.

System: CCRIS mutagenicity, Ames/micronucleus/aberration tests
Assay: CCRIS mutagenicity studies
[1] = Test System: AMES SALMONELLA TYPHIMURIUM, Strain/Indicator: TA98, Metabolic Activation: NONE, Method: PREINCUBATION
[2] = Test System: AMES SALMONELLA TYPHIMURIUM, Strain/Indicator: TA100, Metabolic Activation: NONE, Method: PREINCUBATION
[3] = Test System: AMES SALMONELLA TYPHIMURIUM, Strain/Indicator: TA1535, Metabolic Activation: NONE, Method: PREINCUBATION
[4] = Test System: MOUSE LYMPHOMA, Strain/Indicator: L5178Y (TK+/TK-), Metabolic Activation: NONE, Method: SUSPENSION/PLATE
[5] = Test System: MOUSE LYMPHOMA, Strain/Indicator: L5178Y (TK+/TK-), Metabolic Activation: RAT, LIVER, S-9, AROCLOR 1254, Method: SUSPENSION/PLATE
[6] = Test System: AMES SALMONELLA TYPHIMURIUM, Strain/Indicator: TA98, Metabolic Activation: NONE, Method: STANDARD PLATE
[7] = Test System: AMES SALMONELLA TYPHIMURIUM, Strain/Indicator: TA98, Metabolic Activation: RAT, LIVER, S-9, AROCLOR 1254, Method: STANDARD PLATE
[8] = Test System: AMES SALMONELLA TYPHIMURIUM, Strain/Indicator: TA1538, Metabolic Activation: NONE, Method: STANDARD PLATE
[9] = Test System: AMES SALMONELLA TYPHIMURIUM, Strain/Indicator: TA1538, Metabolic Activation: RAT, LIVER, S-9, AROCLOR 1254, Method: STANDARD PLATE
[10] = Test System: AMES SALMONELLA TYPHIMURIUM, Strain/Indicator: TA100, Metabolic Activation: NONE, Method: STANDARD PLATE

SMILES: CCO
- mutagenic call (Test System: AMES SALMONELLA TYPHIMURIUM, Strain/Indicator: TA97, Metabolic Activation: HAMSTER, LIVER, S-9, AROCLOR 1254 (10%), Method: PREINCUBATION): inactive; negative
- mutagenic call (Test System: AMES SALMONELLA TYPHIMURIUM, Strain/Indicator: TA97, Metabolic Activation: HAMSTER, LIVER, S-9, AROCLOR 1254 (30%), Method: PREINCUBATION): inactive; negative
- mutagenic call (Test System: AMES SALMONELLA TYPHIMURIUM, Strain/Indicator: TA97, Metabolic Activation: NONE, Method: PREINCUBATION): inactive; negative
- mutagenic call (Test System: AMES SALMONELLA TYPHIMURIUM, Strain/Indicator: TA97, Metabolic Activation: RAT, LIVER, S-9, AROCLOR 1254 (10%), Method: PREINCUBATION): inactive; negative
- mutagenic call (Test System: AMES SALMONELLA TYPHIMURIUM, Strain/Indicator: TA97, Metabolic Activation: RAT, LIVER, S-9, AROCLOR 1254 (30%), Method: PREINCUBATION): inactive; negative
- mutagenic call (Test System: AMES SALMONELLA TYPHIMURIUM, Strain/Indicator: TA98, Metabolic Activation: HAMSTER, LIVER, S-9, AROCLOR 1254 (10 OR 30%), Method: PREINCUBATION): inactive; negative
- mutagenic call [1]: inactive; negative
- mutagenic call (Test System: AMES SALMONELLA TYPHIMURIUM, Strain/Indicator: TA98, Metabolic Activation: RAT, LIVER, S-9, AROCLOR 1254 (10 OR 30%), Method: PREINCUBATION): inactive; negative
- mutagenic call (Test System: AMES SALMONELLA TYPHIMURIUM, Strain/Indicator: TA100, Metabolic Activation: HAMSTER, LIVER, S-9, AROCLOR 1254 (10 OR 30%), Method: PREINCUBATION): inactive; negative
- mutagenic call [2]: inactive; negative
- mutagenic call (Test System: AMES SALMONELLA TYPHIMURIUM, Strain/Indicator: TA100, Metabolic Activation: RAT, LIVER, S-9, AROCLOR 1254 (10 OR 30%), Method: PREINCUBATION): inactive; negative
- mutagenic call (Test System: AMES SALMONELLA TYPHIMURIUM, Strain/Indicator: TA104, Metabolic Activation: HAMSTER, LIVER, S-9, AROCLOR 1254 (10 OR 30%), Method: PREINCUBATION): inactive; negative
- mutagenic call (Test System: AMES SALMONELLA TYPHIMURIUM, Strain/Indicator: TA104, Metabolic Activation: NONE, Method: PREINCUBATION): inactive; negative
- mutagenic call (Test System: AMES SALMONELLA TYPHIMURIUM, Strain/Indicator: TA104, Metabolic Activation: RAT, LIVER, S-9, AROCLOR 1254 (10 OR 30%), Method: PREINCUBATION): inactive; negative
- mutagenic call (Test System: AMES SALMONELLA TYPHIMURIUM, Strain/Indicator: TA1535, Metabolic Activation: HAMSTER, LIVER, S-9, AROCLOR 1254 (10 OR 30%), Method: PREINCUBATION): inactive; negative
- mutagenic call [3]: inactive; negative
- mutagenic call (Test System: AMES SALMONELLA TYPHIMURIUM, Strain/Indicator: TA1535, Metabolic Activation: RAT, LIVER, S-9, AROCLOR 1254 (10 OR 30%), Method: PREINCUBATION): inactive; negative
- mutagenic call [4]: inactive; negative
- mutagenic call [5]: inactive; negative

SMILES: CC(=O)Nc1ccc([N+](=O)[O-])cc1
- mutagenic call (Test System: AMES SALMONELLA TYPHIMURIUM, Strain/Indicator: TA98(NR), Metabolic Activation: NONE, Method: STANDARD PLATE): inactive; negative
- mutagenic call (Test System: AMES SALMONELLA TYPHIMURIUM, Strain/Indicator: TA98(NR), Metabolic Activation: RAT, LIVER, S-9, AROCLOR 1254, Method: STANDARD PLATE): inactive; negative
- mutagenic call [6]: inactive; negative
- mutagenic call [7]: inactive; negative
- mutagenic call (Test System: AMES SALMONELLA TYPHIMURIUM, Strain/Indicator: TA1538(NR), Metabolic Activation: NONE, Method: STANDARD PLATE): inactive; negative
- mutagenic call (Test System: AMES SALMONELLA TYPHIMURIUM, Strain/Indicator: TA1538(NR), Metabolic Activation: RAT, LIVER, S-9, AROCLOR 1254, Method: STANDARD PLATE): inactive; negative
- mutagenic call [8]: inactive; negative
- mutagenic call [9]: inactive; negative

SMILES: CC[n+]1c2ccccc2nc2ccccc21
- mutagenic call [6]: inactive; negative
- mutagenic call [7]: active; positive
- mutagenic call [10]: inactive; negative
- mutagenic call (Test System: AMES SALMONELLA TYPHIMURIUM, Strain/Indicator: TA100, Metabolic Activation: RAT, LIVER, S-9, AROCLOR 1254, Method: STANDARD PLATE): inactive; negative
- mutagenic call (Test System: AMES SALMONELLA TYPHIMURIUM, Strain/Indicator: TA102, Metabolic Activation: NONE, Method: STANDARD PLATE): inactive; negative
- mutagenic call (Test System: AMES SALMONELLA TYPHIMURIUM, Strain/Indicator: TA1537, Metabolic Activation: RAT, LIVER, S-9, AROCLOR 1254, Method: STANDARD PLATE): active; positive
- mutagenic call [8]: inactive; negative
- mutagenic call [9]: inactive; negative
- mutagenic call (Test System: AMES SALMONELLA TYPHIMURIUM, Strain/Indicator: TA2638, Metabolic Activation: NONE, Method: STANDARD PLATE): inactive; negative
- mutagenic call (Test System: E. COLI, Strain/Indicator: WP2 (PKM101), Metabolic Activation: NONE, Method: STANDARD PLATE): inactive; negative
- mutagenic call (Test System: E. COLI, Strain/Indicator: WP2 UVRA (PKM101), Metabolic Activation: NONE, Method: STANDARD PLATE): active; positive

SMILES: CCN[C@H](C)C[C@@H](C)NCC.[Cl-].[Cl-].[Pt+2]
- mutagenic call (Test System: AMES SALMONELLA TYPHIMURIUM, Strain/Indicator: TA97A, Metabolic Activation: NONE, Method: STANDARD PLATE): inactive; negative
- mutagenic call [10]: inactive; negative

SMILES: CCON(OC(C)=O)C(=O)c1ccccc1
- mutagenic call [6]: active; positive
- mutagenic call [10]: active; positive
- mutagenic call (Test System: AMES SALMONELLA TYPHIMURIUM, Strain/Indicator: TA100, Metabolic Activation: RAT, S-9, AROCLOR, Method: STANDARD PLATE): active; positive

SMILES: CCCCCCc1ccc(O)cc1O
- mutagenic call (End Point: IN VITRO CHROMOSOMAL ABERRATIONS, Test System: CHO CELLS, Metabolic Activation: NONE): inactive; negative
- mutagenic call (End Point: IN VITRO CHROMOSOMAL ABERRATIONS, Test System: CHO CELLS, Metabolic Activation: RAT, LIVER, S-9, AROCLOR 1254): inactive; negative
- mutagenic call (Test System: AMES SALMONELLA TYPHIMURIUM, Strain/Indicator: TA98, Metabolic Activation: HAMSTER, LIVER, S-9, AROCLOR 1254, Method: PREINCUBATION): inactive; negative
- mutagenic call [1]: inactive; negative
- mutagenic call (Test System: AMES SALMONELLA TYPHIMURIUM, Strain/Indicator: TA98, Metabolic Activation: RAT, LIVER, S-9, AROCLOR 1254, Method: PREINCUBATION): inactive; negative
- mutagenic call (Test System: AMES SALMONELLA TYPHIMURIUM, Strain/Indicator: TA100, Metabolic Activation: HAMSTER, LIVER, S-9, AROCLOR 1254, Method: PREINCUBATION): inactive; negative
- mutagenic call [2]: inactive; negative
- mutagenic call (Test System: AMES SALMONELLA TYPHIMURIUM, Strain/Indicator: TA100, Metabolic Activation: RAT, LIVER, S-9, AROCLOR 1254, Method: PREINCUBATION): inactive; negative
- mutagenic call (Test System: AMES SALMONELLA TYPHIMURIUM, Strain/Indicator: TA1535, Metabolic Activation: HAMSTER, LIVER, S-9, AROCLOR 1254, Method: PREINCUBATION): inactive; negative
- mutagenic call [3]: inactive; negative
- mutagenic call (Test System: AMES SALMONELLA TYPHIMURIUM, Strain/Indicator: TA1535, Metabolic Activation: RAT, LIVER, S-9, AROCLOR 1254, Method: PREINCUBATION): inactive; negative
- mutagenic call (Test System: AMES SALMONELLA TYPHIMURIUM, Strain/Indicator: TA1537, Metabolic Activation: HAMSTER, LIVER, S-9, AROCLOR 1254, Method: PREINCUBATION): inactive; negative
- mutagenic call (Test System: AMES SALMONELLA TYPHIMURIUM, Strain/Indicator: TA1537, Metabolic Activation: NONE, Method: PREINCUBATION): inactive; negative
- mutagenic call (Test System: AMES SALMONELLA TYPHIMURIUM, Strain/Indicator: TA1537, Metabolic Activation: RAT, LIVER, S-9, AROCLOR 1254, Method: PREINCUBATION): inactive; negative
- mutagenic call [4]: inactive; negative
- mutagenic call [5]: active; positive

SMILES: C=CC[C@]1(O)CC[C@H]2[C@@H]3CCC4=CCCC[C@@H]4[C@H]3CC[C@@]21C
- mutagenic call (End Point: IN VIVO MICRONUCLEUS, Test System: HEPATOCYTES, Species: RAT, Strain/Sex: SPRAGUE-DAWLEY/FEMALE, Route: INTRAGASTRIC (GAVAGE)): inactive; negative (increase not significant)
